From the supplement of paper PMC10307832

Legend:
Assay in all cases: relative viability (nuclei count vs DMSO), 5 days (fraction); higher = more cells survive
RERF-LC-KJ = system: RERF-LC-KJ
In short: (§1)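 The day after seeding in 1536-well plates, lung cancer cell lines were treated by pin tool with a single drug, or with a fixed anchor-drug dose together with five library-drug doses (not always all listed) in √10 steps. After 5 days, a combined fix-and-stain solution (final 0.05% Triton X-100, 1% formaldehyde, 1 ug/ml Hoechst) was added. Nuclei counted on 4× images gave relative viability as treated counts over vehicle counts, reported as the median of duplicate plates.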

COR-L 105 = system: COR-L 105
In short: as §1

ChaGo-K-1 = system: ChaGo-K-1
In short: as §1

A-427 = system: A-427
In short: as §1

NCI-H1650 = system: NCI-H1650
In short: as §1

NCI-H2405 = system: NCI-H2405
In short: as §1

NCI-H358 = system: NCI-H358
In short: as §1

EMC-BAC-2 = system: EMC-BAC-2
In short: as §1

NCI-H596 = system: NCI-H596
In short: as §1

SW 900 = system: SW 900
In short: as §1

HARA = system: HARA
In short: as §1

EKVX = system: EKVX
In short: as §1

NCI-H460 = system: NCI-H460
In short: as §1

NCI-H1755 = system: NCI-H1755
In short: as §1

NCI-H1734 = system: NCI-H1734
In short: as §1

LK-2 = system: LK-2
In short: as §1

NCI-H1993 = system: NCI-H1993
In short: as §1

LU99A = system: LU99A
In short: as §1

EPLC-272H = system: EPLC-272H
In short: as §1

NCI-H647 = system: NCI-H647
In short: as §1

## CCNC(=O)c1noc(-c2cc(C(C)C)c(O)cc2O)c1-c1ccc(CN2CCOCC2)cc1 [Luminespib] + COc1cc2c(Oc3ccc(NC(=O)C4(C(=O)Nc5ccc(F)cc5)CC4)cc3F)ccnc2cc1OCCCN1CCOCC1 [Foretinib] (partner 0.25 µM)
RERF-LC-KJ; first compound 0.002 µM
  relative viability: 0.875
RERF-LC-KJ; first compound 0.006325 µM
  relative viability: 0.832
RERF-LC-KJ; first compound 0.02 µM
  relative viability: 0.71
RERF-LC-KJ; first compound 0.06325 µM
  relative viability: 0.861
RERF-LC-KJ; first compound 0.2 µM
  relative viability: 0.445
COR-L 105; first compound 0.002 µM
  relative viability: 0.885
COR-L 105; first compound 0.006325 µM
  relative viability: 1.04
COR-L 105; first compound 0.02 µM
  relative viability: 1.07
COR-L 105; first compound 0.06325 µM
  relative viability: 0.436
COR-L 105; first compound 0.2 µM
  relative viability: 0.273
ChaGo-K-1; first compound 0.002 µM
  relative viability: 0.889
ChaGo-K-1; first compound 0.006325 µM
  relative viability: 0.92
ChaGo-K-1; first compound 0.02 µM
  relative viability: 1.02
ChaGo-K-1; first compound 0.06325 µM
  relative viability: 0.37
ChaGo-K-1; first compound 0.2 µM
  relative viability: 0.299
A-427; first compound 0.002 µM
  relative viability: 1.14
A-427; first compound 0.006325 µM
  relative viability: 0.969
A-427; first compound 0.02 µM
  relative viability: 0.84
A-427; first compound 0.06325 µM
  relative viability: 1.06
A-427; first compound 0.2 µM
  relative viability: 1.1
NCI-H1650; first compound 0.002 µM
  relative viability: 1.26
NCI-H1650; first compound 0.006325 µM
  relative viability: 1.17
NCI-H1650; first compound 0.02 µM
  relative viability: 1.23
NCI-H1650; first compound 0.06325 µM
  relative viability: 0.158
NCI-H1650; first compound 0.2 µM
  relative viability: 0.164
NCI-H2405; first compound 0.002 µM
  relative viability: 1.08
NCI-H2405; first compound 0.006325 µM
  relative viability: 0.852
NCI-H2405; first compound 0.02 µM
  relative viability: 1
NCI-H2405; first compound 0.06325 µM
  relative viability: 0.227
NCI-H2405; first compound 0.2 µM
  relative viability: 0.2
NCI-H358; first compound 0.002 µM
  relative viability: 0.69
NCI-H358; first compound 0.006325 µM
  relative viability: 0.705
NCI-H358; first compound 0.02 µM
  relative viability: 0.631
NCI-H358; first compound 0.06325 µM
  relative viability: 0.06
NCI-H358; first compound 0.2 µM
  relative viability: 0.0569
EMC-BAC-2; first compound 0.002 µM
  relative viability: 1.03
EMC-BAC-2; first compound 0.006325 µM
  relative viability: 0.936
EMC-BAC-2; first compound 0.02 µM
  relative viability: 0.942
EMC-BAC-2; first compound 0.06325 µM
  relative viability: 0.915
EMC-BAC-2; first compound 0.2 µM
  relative viability: 0.56
NCI-H596; first compound 0.002 µM
  relative viability: 0.868
NCI-H596; first compound 0.006325 µM
  relative viability: 0.78
NCI-H596; first compound 0.02 µM
  relative viability: 0.695
NCI-H596; first compound 0.06325 µM
  relative viability: 0.787
NCI-H596; first compound 0.2 µM
  relative viability: 0.783
SW 900; first compound 0.002 µM
  relative viability: 0.966
SW 900; first compound 0.006325 µM
  relative viability: 0.742
SW 900; first compound 0.02 µM
  relative viability: 0.813
SW 900; first compound 0.06325 µM
  relative viability: 0.134
SW 900; first compound 0.2 µM
  relative viability: 0.117
HARA; first compound 0.002 µM
  relative viability: 1.09
HARA; first compound 0.006325 µM
  relative viability: 0.728
HARA; first compound 0.02 µM
  relative viability: 1.08
HARA; first compound 0.06325 µM
  relative viability: 0.922
HARA; first compound 0.2 µM
  relative viability: 0.785
EKVX; first compound 0.002 µM
  relative viability: 0.75
EKVX; first compound 0.006325 µM
  relative viability: 0.453
EKVX; first compound 0.06325 µM
  relative viability: 0.815
EKVX; first compound 0.2 µM
  relative viability: 0.108
NCI-H460; first compound 0.002 µM
  relative viability: 1.01
NCI-H460; first compound 0.006325 µM
  relative viability: 1.07
NCI-H460; first compound 0.02 µM
  relative viability: 0.957
NCI-H460; first compound 0.06325 µM
  relative viability: 0.0285
NCI-H460; first compound 0.2 µM
  relative viability: 0.0276
NCI-H1755; first compound 0.002 µM
  relative viability: 0.874
NCI-H1755; first compound 0.006325 µM
  relative viability: 0.946
NCI-H1755; first compound 0.02 µM
  relative viability: 0.948
NCI-H1755; first compound 0.06325 µM
  relative viability: 0.555
NCI-H1755; first compound 0.2 µM
  relative viability: 0.305
NCI-H1734; first compound 0.002 µM
  relative viability: 0.9
NCI-H1734; first compound 0.006325 µM
  relative viability: 0.915
NCI-H1734; first compound 0.02 µM
  relative viability: 0.697
NCI-H1734; first compound 0.06325 µM
  relative viability: 0.175
NCI-H1734; first compound 0.2 µM
  relative viability: 0.171
LK-2; first compound 0.002 µM
  relative viability: 1.66
LK-2; first compound 0.006325 µM
  relative viability: 1.44
LK-2; first compound 0.02 µM
  relative viability: 0.604
LK-2; first compound 0.06325 µM
  relative viability: 0.858
LK-2; first compound 0.2 µM
  relative viability: 0.88
NCI-H1993; first compound 0.002 µM
  relative viability: 0.772
NCI-H1993; first compound 0.006325 µM
  relative viability: 0.779
NCI-H1993; first compound 0.02 µM
  relative viability: 0.632
NCI-H1993; first compound 0.06325 µM
  relative viability: 0.549
NCI-H1993; first compound 0.2 µM
  relative viability: 0.482
LU99A; first compound 0.002 µM
  relative viability: 0.821
LU99A; first compound 0.006325 µM
  relative viability: 0.758
LU99A; first compound 0.02 µM
  relative viability: 0.527
LU99A; first compound 0.06325 µM
  relative viability: 0.186
LU99A; first compound 0.2 µM
  relative viability: 0.175
EPLC-272H; first compound 0.002 µM
  relative viability: 0.74
EPLC-272H; first compound 0.006325 µM
  relative viability: 0.666
EPLC-272H; first compound 0.06325 µM
  relative viability: 0.625
EPLC-272H; first compound 0.2 µM
  relative viability: 0.0989
NCI-H647; first compound 0.002 µM
  relative viability: 1.32
NCI-H647; first compound 0.006325 µM
  relative viability: 1.12
NCI-H647; first compound 0.02 µM
  relative viability: 1.32
NCI-H647; first compound 0.06325 µM
  relative viability: 0.131
NCI-H647; first compound 0.2 µM
  relative viability: 0.0972
